In patent publication US6689773B2, “Uracil substituted phenyl sulfamoyl carboxamides” (BASF Aktiengesellschaft, priority 2000, dated 2004):

Key:
Format in all cases: in vivo
[1] = test system: CHEAL, Lambsquarters, Chenopodium album, L. Common; experiment: Postemergence herbicidal evaluation (Example 147); conditions: rating scale 0-9, two to three weeks after treatment
Protocol: (§1) Seedling plants were grown in jiffy flats for about two weeks. The test compounds were dispersed in 80/20 acetone/water mixtures containing 1.0% SUN-IT®II, a methylated seed oil, in sufficient quantities to provide the equivalent of about 0.016 to 0.032 kg per hectare of active compound when applied to the plants through a spray nozzle operating at 40 psi for a predetermined time. After spraying, the plants were placed on greenhouse benches and were cared for in accordance with conventional greenhouse procedures. Approximately two to three weeks after treatment, the seedling plants were examined and rated according to the rating scale (0-9) set forth below. Where more than one test is involved for a given compound, the data are averaged. [table] The scale is based upon a visual observation of plant stand, vigor, malformation, size, chlorosis and overall plant appearance as compared with a control. Plant species employed in these evaluations are reported by header abbreviation, common name and scientific name. [table]

[2] = test system: IPOHE, Morningglory, Ivyleaf, Ipomoea hederacea, (L)Jacq.; experiment: Postemergence herbicidal evaluation (Example 147); conditions: rating scale 0-9, two to three weeks after treatment
Protocol: as §1

[3] = test system: AMBEL, Ragweed, Common, Ambrosia artemiisifolia, L.; experiment: Postemergence herbicidal evaluation (Example 147); conditions: rating scale 0-9, two to three weeks after treatment
Protocol: as §1

[4] = test system: ZEAMX, Field corn, Zea mays L.; experiment: Postemergence herbicidal evaluation (Example 147); conditions: rating scale 0-9, two to three weeks after treatment
Protocol: as §1

[5] = test system: ECHCG, Barnyardgrass, Echinochloa crusgalli, (L.)Beau; experiment: Postemergence herbicidal evaluation (Example 147); conditions: rating scale 0-9, two to three weeks after treatment
Protocol: as §1

[6] = test system: XANST, Cocklebur, Xanthium strumariam; experiment: Postemergence herbicidal evaluation (Example 147); conditions: rating scale 0-9, two to three weeks after treatment
Protocol: as §1

[7] = test system: ABUTH, Velvetleaf, Abutilon theophrasti, Medic.; experiment: Postemergence herbicidal evaluation (Example 147); conditions: rating scale 0-9, two to three weeks after treatment
Protocol: as §1

[8] = test system: TRZAW, Winter wheat, Tritium Aestivum, L. (Winter); experiment: Postemergence herbicidal evaluation (Example 147); conditions: rating scale 0-9, two to three weeks after treatment
Protocol: as §1

[9] = test system: ALOMY, Blackgrass, Alopecurus myosuroides; experiment: Postemergence herbicidal evaluation (Example 147); conditions: rating scale 0-9, two to three weeks after treatment
Protocol: as §1

[10] = test system: DIGSA, Crabgrass, (Hairy) L, Digitaria sanguinalis, (L)Scop; experiment: Postemergence herbicidal evaluation (Example 147); conditions: rating scale 0-9, two to three weeks after treatment
Protocol: as §1

[11] = test system: SETVI, Green foxtail, Setaria viridis, (L.)Beau; experiment: Postemergence herbicidal evaluation (Example 147); conditions: rating scale 0-9, two to three weeks after treatment
Protocol: as §1

[12] = test system: GLXMA, Soybean, Glycine max, (L.) Merr.; experiment: Postemergence herbicidal evaluation (Example 147); conditions: rating scale 0-9, two to three weeks after treatment
Protocol: as §1

[13] = test system: CHEAL, Lambsquarters, Chenopodium album, L. Common; experiment: Preemergence herbicidal evaluation (Example 148); conditions: rating scale 0-9, two to four weeks after treatment
Protocol: (§2) The scale is based upon a visual observation of plant stand, vigor, malformation, size, chlorosis and overall plant appearance as compared with a control.
(§3) The herbicidal activity of the compounds of the present invention was evaluated by the following tests wherein the seeds of a variety of monocotyledonous and dicotyledonous plants were separately mixed with potting soil and planted on top of approximately one inch of soil in separate pint cups. After planting, the cups were sprayed with the selected aqueous acetone solution containing test compound in sufficient quantity to provide the equivalent of about 0.125 to 0.250 kg per hectare of test compound per cup. The treated cups were then placed on greenhouse benches, watered and cared for in accordance with conventional greenhouse procedures. From two to four weeks after treatment, the tests were terminated and each cup was examined and rated according to the rating system provided in Example 94. When more than one test was performed for a given compound, the data were averaged.

[14] = test system: IPOHE, Morningglory, Ivyleaf, Ipomoea hederacea, (L)Jacq.; experiment: Preemergence herbicidal evaluation (Example 148); conditions: rating scale 0-9, two to four weeks after treatment
Protocol: as §2, §3

[15] = test system: AMBEL, Ragweed, Common, Ambrosia artemiisifolia, L.; experiment: Preemergence herbicidal evaluation (Example 148); conditions: rating scale 0-9, two to four weeks after treatment
Protocol: as §2, §3

[16] = test system: ZEAMX, Field corn, Zea mays L.; experiment: Preemergence herbicidal evaluation (Example 148); conditions: rating scale 0-9, two to four weeks after treatment
Protocol: as §2, §3

[17] = test system: ECHCG, Barnyardgrass, Echinochloa crusgalli, (L.)Beau; experiment: Preemergence herbicidal evaluation (Example 148); conditions: rating scale 0-9, two to four weeks after treatment
Protocol: as §2, §3

[18] = test system: ABUTH, Velvetleaf, Abutilon theophrasti, Medic.; experiment: Preemergence herbicidal evaluation (Example 148); conditions: rating scale 0-9, two to four weeks after treatment
Protocol: as §2, §3

[19] = test system: TRZAW, Winter wheat, Tritium Aestivum, L. (Winter); experiment: Preemergence herbicidal evaluation (Example 148); conditions: rating scale 0-9, two to four weeks after treatment
Protocol: as §2, §3

[20] = test system: ALOMY, Blackgrass, Alopecurus myosuroides; experiment: Preemergence herbicidal evaluation (Example 148); conditions: rating scale 0-9, two to four weeks after treatment
Protocol: as §2, §3

[21] = test system: DIGSA, Crabgrass, (Hairy) L, Digitaria sanguinalis, (L)Scop; experiment: Preemergence herbicidal evaluation (Example 148); conditions: rating scale 0-9, two to four weeks after treatment
Protocol: as §2, §3

[22] = test system: SETVI, Green foxtail, Setaria viridis, (L.)Beau; experiment: Preemergence herbicidal evaluation (Example 148); conditions: rating scale 0-9, two to four weeks after treatment
Protocol: as §2, §3

CCCN(C)S(=O)(=O)NC(=O)c1cc(-n2c(=O)cc(C(F)(F)F)n(C)c2=O)c(F)cc1Cl [Example 67]
2.0: Postemergence herbicidal rating ALMOY ([9]; rate 0.016 kg/ha)
7.0: Postemergence herbicidal rating TRZAW ([8]; rate 0.032 kg/ha) | Preemergence herbicidal rating AMBEL ([15]; rate 0.25 kg/ha) | Preemergence herbicidal rating DIGSA ([21]; rate 0.125 kg/ha)
0.0: Preemergence herbicidal rating ZEAMX ([16]; rate 0.125 kg/ha) | Preemergence herbicidal rating TRZAW ([19]; rate 0.125 kg/ha) | Preemergence herbicidal rating ALMOY ([20]; rate 0.125 kg/ha) | Preemergence herbicidal rating ALMOY ([20]; rate 0.25 kg/ha)
8.5: Postemergence herbicidal rating GLXMA ([12]; rate 0.032 kg/ha)
6.5: Postemergence herbicidal rating TRZAW ([8]; rate 0.016 kg/ha)
6.0: Postemergence herbicidal rating DIGSA ([10]; rate 0.016 kg/ha) | Postemergence herbicidal rating DIGSA ([10]; rate 0.032 kg/ha)
8.0: Postemergence herbicidal rating ECHCG ([5]; rate 0.016 kg/ha) | Postemergence herbicidal rating ECHCG ([5]; rate 0.032 kg/ha) | Postemergence herbicidal rating SETVI ([11]; rate 0.016 kg/ha) | Postemergence herbicidal rating SETVI ([11]; rate 0.032 kg/ha) | Postemergence herbicidal rating GLXMA ([12]; rate 0.016 kg/ha) | Preemergence herbicidal rating ECHCG ([17]; rate 0.125 kg/ha) | Preemergence herbicidal rating DIGSA ([21]; rate 0.25 kg/ha) | Preemergence herbicidal rating SETVI ([22]; rate 0.125 kg/ha) | Preemergence herbicidal rating SETVI ([22]; rate 0.25 kg/ha)
1.0: Preemergence herbicidal rating ZEAMX ([16]; rate 0.25 kg/ha) | Preemergence herbicidal rating TRZAW ([19]; rate 0.25 kg/ha)
9.0: Postemergence herbicidal rating CHEAL ([1]; rate 0.016 kg/ha) | Postemergence herbicidal rating CHEAL ([1]; rate 0.032 kg/ha) | Postemergence herbicidal rating IPOHE ([2]; rate 0.016 kg/ha) | Postemergence herbicidal rating IPOHE ([2]; rate 0.032 kg/ha) | Postemergence herbicidal rating AMBEL ([3]; rate 0.016 kg/ha) | Postemergence herbicidal rating AMBEL ([3]; rate 0.032 kg/ha) | Postemergence herbicidal rating XANST ([6]; rate 0.016 kg/ha) | Postemergence herbicidal rating XANST ([6]; rate 0.032 kg/ha) | Postemergence herbicidal rating ABUTH ([7]; rate 0.016 kg/ha) | Postemergence herbicidal rating ABUTH ([7]; rate 0.032 kg/ha) | Preemergence herbicidal rating CHEAL ([13]; rate 0.125 kg/ha) | Preemergence herbicidal rating CHEAL ([13]; rate 0.25 kg/ha) | Preemergence herbicidal rating IPOHE ([14]; rate 0.125 kg/ha) | Preemergence herbicidal rating IPOHE ([14]; rate 0.25 kg/ha) | Preemergence herbicidal rating AMBEL ([15]; rate 0.125 kg/ha) | Preemergence herbicidal rating ECHCG ([17]; rate 0.25 kg/ha) | Preemergence herbicidal rating ABUTH ([18]; rate 0.125 kg/ha) | Preemergence herbicidal rating ABUTH ([18]; rate 0.25 kg/ha)
7.5: Postemergence herbicidal rating ZEAMX ([4]; rate 0.016 kg/ha) | Postemergence herbicidal rating ZEAMX ([4]; rate 0.032 kg/ha)
3.0: Postemergence herbicidal rating ALMOY ([9]; rate 0.032 kg/ha)

CCC(C)NS(=O)(=O)NC(=O)c1cc(-n2c(=O)cc(C(F)(F)F)n(C)c2=O)c(F)cc1Cl (stereo not shown) [Example 64]
3.0: Postemergence herbicidal rating ALMOY ([9]; rate 0.016 kg/ha) | Preemergence herbicidal rating ECHCG ([17]; rate 0.125 kg/ha) | Preemergence herbicidal rating TRZAW ([19]; rate 0.25 kg/ha)
7.5: Postemergence herbicidal rating ZEAMX ([4]; rate 0.016 kg/ha) | Postemergence herbicidal rating GLXMA ([12]; rate 0.016 kg/ha)
9.0: Postemergence herbicidal rating CHEAL ([1]; rate 0.016 kg/ha) | Postemergence herbicidal rating CHEAL ([1]; rate 0.032 kg/ha) | Postemergence herbicidal rating IPOHE ([2]; rate 0.016 kg/ha) | Postemergence herbicidal rating IPOHE ([2]; rate 0.032 kg/ha) | Postemergence herbicidal rating AMBEL ([3]; rate 0.016 kg/ha) | Postemergence herbicidal rating AMBEL ([3]; rate 0.032 kg/ha) | Postemergence herbicidal rating ECHCG ([5]; rate 0.016 kg/ha) | Postemergence herbicidal rating ECHCG ([5]; rate 0.032 kg/ha) | Postemergence herbicidal rating XANST ([6]; rate 0.016 kg/ha) | Postemergence herbicidal rating XANST ([6]; rate 0.032 kg/ha) | Postemergence herbicidal rating ABUTH ([7]; rate 0.016 kg/ha) | Postemergence herbicidal rating ABUTH ([7]; rate 0.032 kg/ha) | Postemergence herbicidal rating SETVI ([11]; rate 0.032 kg/ha) | Preemergence herbicidal rating CHEAL ([13]; rate 0.125 kg/ha) | Preemergence herbicidal rating CHEAL ([13]; rate 0.25 kg/ha) | Preemergence herbicidal rating IPOHE ([14]; rate 0.125 kg/ha) | Preemergence herbicidal rating IPOHE ([14]; rate 0.25 kg/ha) | Preemergence herbicidal rating AMBEL ([15]; rate 0.125 kg/ha) | Preemergence herbicidal rating AMBEL ([15]; rate 0.25 kg/ha) | Preemergence herbicidal rating ABUTH ([18]; rate 0.125 kg/ha) | Preemergence herbicidal rating ABUTH ([18]; rate 0.25 kg/ha) | Preemergence herbicidal rating DIGSA ([21]; rate 0.25 kg/ha) | Preemergence herbicidal rating SETVI ([22]; rate 0.25 kg/ha)
0.0: Preemergence herbicidal rating ZEAMX ([16]; rate 0.125 kg/ha) | Preemergence herbicidal rating TRZAW ([19]; rate 0.125 kg/ha) | Preemergence herbicidal rating ALMOY ([20]; rate 0.125 kg/ha)
5.0: Postemergence herbicidal rating ALMOY ([9]; rate 0.032 kg/ha) | Postemergence herbicidal rating DIGSA ([10]; rate 0.016 kg/ha) | Postemergence herbicidal rating DIGSA ([10]; rate 0.032 kg/ha)
6.0: Postemergence herbicidal rating TRZAW ([8]; rate 0.016 kg/ha)
2.0: Preemergence herbicidal rating ZEAMX ([16]; rate 0.25 kg/ha)
7.0: Postemergence herbicidal rating TRZAW ([8]; rate 0.032 kg/ha) | Preemergence herbicidal rating ECHCG ([17]; rate 0.25 kg/ha)
4.0: Preemergence herbicidal rating ALMOY ([20]; rate 0.25 kg/ha)
8.0: Postemergence herbicidal rating ZEAMX ([4]; rate 0.032 kg/ha) | Postemergence herbicidal rating SETVI ([11]; rate 0.016 kg/ha) | Postemergence herbicidal rating GLXMA ([12]; rate 0.032 kg/ha) | Preemergence herbicidal rating DIGSA ([21]; rate 0.125 kg/ha) | Preemergence herbicidal rating SETVI ([22]; rate 0.125 kg/ha)
